Laboratory results published in US20080306146A1, “Dosing Regimens for Cox-2 Inhibitor” (AMOREPACIFIC CORPORATION, priority 2005, published 2008).
Values belong to the molecule of their own block, whether it stands above or below them.

Assays:
clinical = details: male, human, plasma, po
[1] = tested on: carrageenan-induced thermal hyperalgesia in male SD rats; details: orally administered; cited from earlier work
[2] = tested on: adjuvant-induced arthritis in male Lewis rats; details: cited from earlier work
[3] = plasma pharmacokinetics in healthy male subjects, single oral dose of capsule drug product
[4] = plasma pharmacokinetics in healthy male subjects, multiple dose (loading plus daily maintenance dose, 8 days); assay type: in vivo, human
Text: By assuming an elimination half-life of 4 to 5 days for Compound A, were designed multiple dosing regimens by which steady state plasma concentrations of Compound A are rapidly reached and maintained throughout the dosing period. […] Although only two examples of dosing regimens involving a combination of loading dose and daily maintenance dose are provided in Table 3, it is not intended to limit the dosing regimens of this invention only to those provided in Table 3. Obviously, variations in the loading dose and consequent the daily maintenance dose levels may be conceived depending on indications of subjects. For example a loading dose of 2 mg may be used in combination with a daily maintenance dose of about 0.25 mg/day.
The dosing regimens of the instant invention were tested in healthy human male subjects. Table 4 provides mean pre-dose plasma levels of Compound A following oral administrations of capsule drug products containing Compound A according to either Regimen A or Regimen B of Table 3 daily once for 8 days. In both dosing regimens, the pre-dose plasma levels remained almost constant.

half-life (clinical): 77 to 135 h
Cmax (clinical; 1 mg): 1.65 ng/mL
Cmax (clinical; 5 mg): 7.82 ng/mL
Cmax (clinical; 8 mg): 13.3 ng/mL
Cmax (clinical; 12 mg): 18.1 ng/mL
Terminal Elimination Half-life ([3]; single oral dose 5 mg (Group 2)): 118 ± 66 h
Terminal Elimination Half-life ([3]; single oral dose 8 mg (Group 3)): 77 ± 8 h
Terminal Elimination Half-life ([3]; single oral dose 12 mg (Group 4)): 135 ± 24 h
Mean Pre-dose Plasma Level ([4]; Regimen A (3 mg loading, 0.4 mg/day maintenance), Day 2): 3.8 ng/mL
drug accumulation from the multiple dosings ([4]; Regimen A and Regimen B, daily once for 8 days): no suggestions of drug accumulation
Mean Pre-dose Plasma Level ([4]; Regimen A, Day 1 (before loading dose)): 0 ng/mL
Mean Pre-dose Plasma Level ([4]; Regimen A, Day 3): 4.2 ng/mL
Mean Pre-dose Plasma Level ([4]; Regimen A, Day 4): 4.0 ng/mL
Mean Pre-dose Plasma Level ([4]; Regimen A, Day 5): 4.7 ng/mL
Mean Pre-dose Plasma Level ([4]; Regimen A, Day 6): 4.5 ng/mL
Mean Pre-dose Plasma Level ([4]; Regimen A, Day 7): 3.6 ng/mL
Mean Pre-dose Plasma Level ([4]; Regimen A, Day 8): 3.6 ng/mL
Mean Pre-dose Plasma Level ([4]; Regimen A, Day 9 (no dose)): 4.0 ng/mL
Mean Pre-dose Plasma Level ([4]; Regimen B (6 mg loading, 0.8 mg/day maintenance), Day 2): 6.2 ng/mL
Mean Pre-dose Plasma Level ([4]; Regimen B, Day 1 (before loading dose)): 0 ng/mL
Mean Pre-dose Plasma Level ([4]; Regimen B, Day 3): 6.2 ng/mL
Mean Pre-dose Plasma Level ([4]; Regimen B, Day 4): 6.3 ng/mL
Mean Pre-dose Plasma Level ([4]; Regimen B, Day 5): 6.5 ng/mL
Mean Pre-dose Plasma Level ([4]; Regimen B, Day 6): 6.3 ng/mL
Mean Pre-dose Plasma Level ([4]; Regimen B, Day 7): 6.6 ng/mL
Mean Pre-dose Plasma Level ([4]; Regimen B, Day 8): 7.1 ng/mL
Mean Pre-dose Plasma Level ([4]; Regimen B, Day 9 (no dose)): 6.6 ng/mL
half-life ([4]; male, human, plasma, oral, Regimen A and Regimen B, after 8 days of daily once dosing, read-out: mean elimination half-lives following the last dosing): 96 to 120 h
Structure (SMILES): CC1(C)OC(c2ccc(S(N)(=O)=O)cc2)=C(c2cccc(F)c2)C1=O [Compound A, 5-{4-(aminosulfonyl)phenyl}-2,2-dimethyl-4-(3-fluorophenyl)-3(2H)furanone]
ED50 in carrageenan-induced thermal hyperalgesia [1]: 0.25 mg/kg
ED50 by adjuvant-induced arthritis [2]: 0.1 mg/kg/day
dose dependence of Cmax ([3]; single oral dose 1 to 12 mg): increased essentially dose proportionally

Structure (SMILES): COc1ccc2c(c1)c(CC(=O)O)c(C)n2C(=O)c1ccc(Cl)cc1 [indomethacin, reference compound]
ED50 in carrageenan-induced thermal hyperalgesia [1]: ~1.0 mg/kg
ED50 by adjuvant-induced arthritis [2]: 0.3 mg/kg/day
